The source of these data is patent US9732092B2, “Substituted 2,3,4,5,7,9,13,13a-octahydropyrido[1′,2′:4,5]pyrazino[2,1-b][1,3]OXAZEPINES and methods for treating viral infections” (Gilead Sciences, Inc., priority 2012, dated 2017).

What is called Emax is the maximal effect, on the per cent scale that the assay sets.

Data set [1] in a line: Cytotoxicity (CC50) in MT4 cells, mock-infected. The following applies: human. How it is done:
(§1) For the antiviral assay utilizing MT4 cells, 0.4 μL of […] test concentration of 3-fold serially diluted compound in DMSO was added to 40 μL of cell growth medium (RPMI 1640, 10% FBS, 1% penicilline/Streptomycine, 1% L-Glutamine, 1% HEPES) in each well of 384-well assay plates (10 concentrations) in quidruplicate.
(§2) 1 mL aliquots of 2×10^6 MT4 cells are pre-infected for 1 and 3 hours respectively at 37° C. with 25 μL (MT4) or of either cell growth medium (mock-infected) or a fresh 1:250 dilution of an HIV-IIIb concentrated ABI stock (0.004 m.o.i. for MT4 cells). Infected and uninfected cells are diluted in cell growth medium and 35 μL of 2000 (for MT4) cells is added to each well of the assay plates.
(§3) Assay plates were then incubated in a 37° C. incubator. After 5 days of incubation, 25 μL of 2× concentrated CellTiter-GloT Reagent (catalog # G7573, Promega Biosciences, Inc., Madison, Wis.) was added to each well of the assay plate. Cell lysis was carried out by incubating at room temperature for 2-3 minutes, and then chemiluminescence was read using the Envision reader (PerkinElmer).

Data set [2] addresses human PXR (NR1I2) (Homo sapiens (Human), UniProt O75469). Nature of the data set: Human PXR activation assay (luciferase reporter gene, DPX2 cells). The following applies: relative to maximum fold induction by 10 or 20 μM rifampicin. The format is cell-based. How it is done: A stably transformed tumor cell line (DPX2) was plated on 96-well microtiter plates. DPX2 cells harbor the human PXR gene (NR1I2) and a luciferase reporter gene linked to two promoters identified in the human CYP3A4 gene, namely XREM and PXRE. […] The number of viable cells was determined and the reporter gene activity was assessed. Positive control: […]
(Reporter assays use an easily measured gene product as a stand-in for the process of interest.)

Data set [3] deals with MT4 cells. Nature of the data set: Cytotoxicity (CC50) in MT4 cells, mock-infected. The following applies: read-out: CC50 nM in MT-4; MT4 cells, 5 days, CellTiter-Glo. How it is done: as §1, §2, §3
On the technique in general: ATP-based viability assays read luminescence as a measure of living cells.

Data set [4] is described as follows: Pharmacokinetic analysis following oral administration to beagle dogs. It counts as in vivo. The following applies: beagle dog, 1 mg/kg. How it is done: Pharmacokinetic analysis was performed on various test compounds following intravenous or oral administration to beagle dogs.
For pharmacokinetic analysis of intravenously administered compounds, the test compounds were formulated in 5% Ethanol, 55% PEG 300, and 40% water at 0.1 mg/mL for IV infusion. For pharmacokinetic analysis of orally administered compounds, the test compounds were formulated as an aqueous suspension in 0.1% Tween 20, 0.5% HPMC LV100 in Di Water at 1 mg/kg.
Each dosing group consisted of 3 male, non-naïve purebred beagle dogs. At dosing, the animals weighed between 10 to 13 kg. The animals were fasted overnight prior to dose administration and up to 4 hr after dosing. For studies of intravenous administration, the test article was administered to the animals by intravenous infusion over 30 min. The rate of infusion was adjusted according to the body weight of each animal to deliver a dose of 0.5 mg/kg. […]
For pharmacokinetic analysis of orally administered compounds, serial venous blood samples (approximately 0.3 mL each) were taken from each animal at time points of 0, 0.25, 0.50, 1.0, 2.0, 4.0, 6.0, 8.0, 12.0 and 24.0 hours after dosing. Blood samples were collected, prepared and analyzed in a similar way to the intranveous studies described above. […]

The mark [5] stands for this setting: MT4 cells, mock-infected (uninfected).

Chain of human PXR (NR1I2) (O75469 whole entry): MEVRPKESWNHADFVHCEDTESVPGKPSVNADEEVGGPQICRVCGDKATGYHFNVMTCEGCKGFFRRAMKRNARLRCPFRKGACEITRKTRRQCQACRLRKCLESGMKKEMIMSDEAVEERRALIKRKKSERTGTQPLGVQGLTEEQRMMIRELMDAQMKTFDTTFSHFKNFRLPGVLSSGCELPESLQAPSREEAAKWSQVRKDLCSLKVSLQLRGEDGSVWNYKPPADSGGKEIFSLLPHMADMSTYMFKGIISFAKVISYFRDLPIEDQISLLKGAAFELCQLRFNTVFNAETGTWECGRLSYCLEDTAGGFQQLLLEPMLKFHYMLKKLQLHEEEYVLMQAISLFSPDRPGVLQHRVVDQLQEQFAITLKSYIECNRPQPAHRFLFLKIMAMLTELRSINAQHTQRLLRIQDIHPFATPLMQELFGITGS

As to `O=C(NCc1c(F)cc(F)cc1F)c1cn2c(c(O)c1=O)C(=O)N1[C@H]3CC[C@H](CC3)[C@@H]1C2` [Compound 102, (1S,4S,12aR)-7-hydroxy-6,8-dioxo-N-(2,4,6-trifluorobenzyl)-1,2,3,4,6,8,12, 12a-octahydro-1,4-ethanodipyrido[1,2-a:1′,2′-d]pyrazine-9-carboxamide], the CC50 at 5 days in data set [1] (setting [5]) turned out to be 12 µM. The maximal response (Emax) at 24 h, 15 µM in data set [2] is 123%.

`O=C(NCc1ccc(F)cc1F)c1cn2c(c(O)c1=O)C(=O)N1[C@@H]3COC[C@@H](C3)O[C@H]1C2` (racemic) [50/51, N-(2,4-difluorobenzyl)-9-hydroxy-8,10-dioxo-2,3,5,6,8, 10,14,14a-octahydro-2,6-methanopyrido[1′,2′:4,5]pyrazino[2,1-b][1,6,3]dioxazocine-11-carboxamide] showed a CC50 at 5 days in data set [1] of 37.2 µM. `O=C(NC1(c2ccc(F)cc2F)CCCCC1)c1cn2c(c(O)c1=O)C(=O)N1C(C2)O[C@H]2CC[C@@H]1C2` (stereo partly drawn) [Compound 34, (2S,5R)—N-(1-(2,4-difluorophenyl)cyclohexyl)-8-hydroxy-7,9-dioxo-2,3,4,5,7,9,13,13a-octahydro-2,5-methanopyrido[1′,2′:4, 5]pyrazino[2,1-b][1,3]oxazepine-10-carboxamide]: the CC50 in data set [3] amounted to 3580 nM. On to `O=C(NCc1c(F)cc(F)cc1F)c1cn2c(c(O)c1=O)C(=O)N1[C@H]3CC[C@H](CC3)[C@H]1C2` [Compound 101, (1R,4R,12aS)-7-hydroxy-6,8-dioxo-N-(2,4,6-trifluorobenzyl)-1,2,3,4,6,8,12,12a-octahydro-1,4-ethanodipyrido[1,2-a:1′,2′-d]pyrazine-9-carboxamide], for which the CC50 at 5 days in data set [1] (setting [5]) turned out to be 11.6 µM.

For the compound `O=C(NCc1c(F)cc(F)cc1F)c1cn2c(c(O)c1=O)C(=O)N1[C@H]3CC[C@H](C3)O[C@@H]1C2` [Compound 42, (2R,5S,13aR)-8-hydroxy-7,9-dioxo-N-(2,4,6-trifluorobenzyl)-2,3,4,5,7,9,13,13a-octahydro-2,5-methanopyrido[1′,2′:4,5]pyrazino[2,1-b][1,3]oxazepine-10-carboxamide], in data set [4], the “F (%) aqueous suspension” value is recorded as 28.0%.
